Experimental data from patent US12441736B2, “KIF18A inhibitors” (AMGEN INC., priority 2018, dated 2025).

Molecular target: T1, Recombinant human KIF18A (1-467 His-tagged) protein (Homo sapiens, UniProt Q8NI77)
T1 construct: Recombinant human KIF18A (1-467 His-tagged) protein; His; made in house
Test: KIF18A Enzyme Assay: microtubule-stimulated ATPase activity (ADP-Glo)
Type: biochemical
Settings: 30 nM KIF18A, 30 μg/mL pig microtubules, 75 μM ATP, ADP-Glo luminescence
Method in brief: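 IC50 comes from a four-parameter logistic fit over a 22-point, 2-fold series, with ADP quantified by ADP-Glo luminescence. Reactions ran at room temperature: compound plus 30 nM KIF18A(1-467)-His for 15 min, then 75 μM ATP (Km) for 15 min. The buffer held pig microtubules at 30 μg/mL and 1 μM taxol.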

T1 sequence (Q8NI77 1-467): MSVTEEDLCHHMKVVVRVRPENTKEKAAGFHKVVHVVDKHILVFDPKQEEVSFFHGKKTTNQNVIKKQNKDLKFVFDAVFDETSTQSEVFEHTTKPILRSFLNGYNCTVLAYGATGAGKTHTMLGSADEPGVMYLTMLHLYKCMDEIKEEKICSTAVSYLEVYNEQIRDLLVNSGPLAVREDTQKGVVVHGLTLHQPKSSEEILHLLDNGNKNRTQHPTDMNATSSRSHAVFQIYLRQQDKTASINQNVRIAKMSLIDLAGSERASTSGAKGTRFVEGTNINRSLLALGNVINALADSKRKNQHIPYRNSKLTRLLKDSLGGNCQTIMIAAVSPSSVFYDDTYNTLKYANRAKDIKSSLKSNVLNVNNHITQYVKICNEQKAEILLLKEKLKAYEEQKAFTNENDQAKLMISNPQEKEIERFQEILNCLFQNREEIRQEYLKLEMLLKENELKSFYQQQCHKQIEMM
T1 sequence (P02550 whole entry partner): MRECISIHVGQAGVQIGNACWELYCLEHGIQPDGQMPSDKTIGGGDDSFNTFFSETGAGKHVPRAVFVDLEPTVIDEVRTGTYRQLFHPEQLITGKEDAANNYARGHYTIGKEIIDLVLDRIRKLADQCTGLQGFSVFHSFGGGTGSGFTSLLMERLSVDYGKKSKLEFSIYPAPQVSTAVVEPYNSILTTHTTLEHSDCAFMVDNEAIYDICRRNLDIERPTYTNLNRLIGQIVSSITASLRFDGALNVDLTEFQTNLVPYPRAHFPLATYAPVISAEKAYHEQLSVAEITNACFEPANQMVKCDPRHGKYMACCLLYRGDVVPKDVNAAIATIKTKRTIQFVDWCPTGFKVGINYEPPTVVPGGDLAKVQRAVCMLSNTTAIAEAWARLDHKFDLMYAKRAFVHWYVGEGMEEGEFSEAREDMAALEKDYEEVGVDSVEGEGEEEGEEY
T1 sequence (P02554 whole entry partner): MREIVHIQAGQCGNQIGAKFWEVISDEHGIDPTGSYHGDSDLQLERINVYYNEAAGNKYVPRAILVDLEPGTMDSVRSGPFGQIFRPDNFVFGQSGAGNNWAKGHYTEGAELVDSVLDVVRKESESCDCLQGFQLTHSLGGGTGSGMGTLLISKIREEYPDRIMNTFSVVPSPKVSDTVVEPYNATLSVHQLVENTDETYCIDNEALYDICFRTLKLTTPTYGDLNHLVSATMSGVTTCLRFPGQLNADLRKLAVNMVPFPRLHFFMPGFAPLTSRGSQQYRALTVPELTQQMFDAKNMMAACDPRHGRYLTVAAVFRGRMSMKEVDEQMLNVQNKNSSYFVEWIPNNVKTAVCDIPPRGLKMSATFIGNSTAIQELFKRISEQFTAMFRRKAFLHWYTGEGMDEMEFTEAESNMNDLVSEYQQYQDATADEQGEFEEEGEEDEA

| SMILES | IC50 [nM] |
| --- | --- |
| CC(C)(CO)Nc1ccc(C(=O)Nc2cccc(N3CCCC3(C)CO)n2)c(N2CCC3(CC2)CC3)n1 (stereo not drawn) [Example 231, 6-((1-hydroxy-2-methylpropan-2-yl)amino)-N-(6-(2-(hydroxymethyl)-2-methylpyrrolidin-1-yl)pyridin-2-yl)-2-(6-azaspiro[2.5]octan-6-yl)nicotinamide] | 134 |
| CN(C(=O)OC(C)(C)C)C1CCCN(c2cccc(NC(=O)c3ccc(NC(C)(C)CO)nc3N3CCC4(CC3)CC4)n2)C1 (stereo not drawn) [Example 232, tert-butyl (1-(6-(6-((1-hydroxy-2-methylpropan-2-yl)amino)-2-(6-azaspiro[2.5]octan-6-yl)nicotinamido)pyridin-2-yl)piperidin-3-yl)(methyl)carbamate] | 948 |
| CNC1CCCN(c2cccc(NC(=O)c3ccc(NC(C)(C)CO)nc3N3CCC4(CC3)CC4)n2)C1 (stereo not drawn) [Example 233, 6-((1-hydroxy-2-methylpropan-2-yl)amino)-N-(6-(3-(methylamino)piperidin-1-yl)pyridin-2-yl)-2-(6-azaspiro[2.5]octan-6-yl)nicotinamide] | 999 |
| CC(C)(CO)Nc1ccc(C(=O)Nc2cccc(N3CCCC(NC(=O)OC(C)(C)C)C3)n2)c(N2CCC3(CC2)CC3)n1 (stereo not drawn) [Example 234, tert-butyl (1-(6-(6-((1-hydroxy-2-methylpropan-2-yl)amino)-2-(6-azaspiro[2.5]octan-6-yl)nicotinamido)pyridin-2-yl)piperidin-3-yl)carbamate] | 1520 |
| CC(C)(CO)Nc1ccc(C(=O)Nc2cccc(N3CCOC(CN)C3)n2)c(N2CCC3(CC2)CC3)n1 (stereo not drawn) [Example 235, N-(6-(2-(aminomethyl)morpholino)pyridin-2-yl)-6-((1-hydroxy-2-methylpropan-2-yl)amino)-2-(6-azaspiro[2.5]octan-6-yl)nicotinamide] | 357 |
| CC(C)(CO)Nc1ccc(C(=O)Nc2cccc(N3CCCC(N)C3)n2)c(N2CCC3(CC2)CC3)n1 (stereo not drawn) [Example 236, N-(6-(3-aminopiperidin-1-yl)pyridin-2-yl)-6-((1-hydroxy-2-methylpropan-2-yl)amino)-2-(6-azaspiro[2.5]octan-6-yl)nicotinamide] | 388 |
| C[C@@H]1CN(c2cccc(NC(=O)c3cnc(NS(=O)(=O)CCO)cc3N3CCC4(CC3)CC4)n2)CCO1 [Example 237] | 66.7 |
| C[C@@H]1CN(c2cccc(NC(=O)c3ccc(S(C)(=O)=O)nc3N3CCC4(CC3)CC4)n2)CCO1 [Example 238, (R)-N-(6-(2-methylmorpholino)pyridin-2-yl)-6-(methylsulfonyl)-2-(6-azaspiro[2.5]octan-6-yl)nicotinamide] | 284 |
| C[C@@H]1CN(c2cccc(NC(=O)c3ccc(CS(C)(=O)=O)nc3N3CCC4(CC3)CC4)n2)CCO1 [Example 239, 2-(6-azaspiro[2.5]octan-6-yl)-N-(6-((2R)-2-methyl-4-morpholinyl)-2-pyridinyl)-6-((methylsulfonyl)methyl)-3-pyridinecarboxamide] | 68.1 |
| Cc1cc(NC(=O)c2ccc(CS(C)(=O)=O)nc2N2CCC3(CC2)CC3)nc(N2CCOCC2)c1 [Example 240, 2-(6-azaspiro[2.5]octan-6-yl)-N-(4-methyl-6-(4-morpholinyl)-2-pyridinyl)-6-((methylsulfonyl)methyl)-3-pyridinecarboxamide] | 107 |
| CS(=O)(=O)Cc1ccc(C(=O)Nc2cccc(N3CCC[C@@H](O)C3)n2)c(N2CCC3(CC2)CC3)n1 [Example 241, 2-(6-azaspiro[2.5]octan-6-yl)-N-(6-((3R)-3-hydroxy-1-piperidinyl)-2-pyridinyl)-6-((methylsulfonyl)methyl)-3-pyridinecarboxamide] | 101 |
| O=C(Nc1cccc(N2CCC[C@@H](O)C2)n1)c1ccc(C(O)(CO)C(F)(F)F)nc1N1CCC2(CC1)CC2 (stereo partly drawn) [Example 242, N-(6-((R)-3-hydroxypiperidin-l-yl)pyridin-2-yl)-2-(6-azaspiro[2.5]octan-6-yl)-6-(1,1,1-trifluoro-2,3-dihydroxypropan-2-yl)nicotinamide] | 78.1 |
| C[C@@H]1CN(c2cccc(NC(=O)c3cnc(NC(C)(C)CO)cc3N3CCC4(CC3)CC4)n2)CCO1 [Example 243, (R)-6-((1-hydroxy-2-methylpropan-2-yl)amino)-N-(6-(2-methylmorpholino)pyridin-2-yl)-4-(6-azaspiro[2.5]octan-6-yl)nicotinamide] | 440 |
| CC(c1ccc(C(=O)Nc2cccc(N3CCO[C@H](C)C3)n2)c(N2CCC3(CC2)CC3)n1)S(C)(=O)=O (stereo partly drawn) [Example 244, N-(6-((R)-2-methylmorpholino)pyridin-2-yl)-6-(1-(methylsulfonyl)ethyl)-2-(6-azaspiro[2.5]octan-6-yl)nicotinamide] | 51.2 |
| O=C(Nc1cccnc1N1CCC2(CC1)CC2)c1cccc(N2CCOCC2)n1 [Example 245, N-(2-(6-azaspiro[2.5]oct-6-yl)-3-pyridinyl)-6-(4-morpholinyl)-2-pyridinecarboxamide] | 860 |
| CC(O)(c1ccc(NC(=O)c2cccc(N3CCOCC3)n2)c(N2CCC3(CC2)CC3)n1)C(F)(F)F (stereo not drawn) [Example 246, N-(2-(6-Azaspiro[2.5]octan-6-yl)-6-(1,1,1-trifluoro-2-hydroxypropan-2-yl)pyridin-3-yl)-6-morpholinopicolinamide] | 292 |
| C[C@@H]1CN(c2nc(NC(=O)c3ccc(NC(C)(C)CO)nc3N3CCC4(CC3)CC4)ccc2F)CCO1 [Example 247, 2-(6-azaspiro[2.5]octan-6-yl)-N-(5-fluoro-6-((2R)-2-methyl-4-morpholinyl)-2-pyridinyl)-6-((1-hydroxy-2-methyl-2-propanyl)amino)-3-pyridinecarboxamide] | 89.1 |
| O=C(Nc1ccc(NS(=O)(=O)CCO)cc1N1CCC2(CC1)CC2)c1cccc(N2CCC(F)(F)CC2)n1 [Example 248, 6-(4,4-difluoropiperidin-1-yl)-N-(4-((2-hydroxyethyl)sulfonamido)-2-(6-azaspiro[2.5]octan-6-yl)phenyl)picolinamide] | 16 |
